Measured values as given in patent US20230257372A1 (CHONG KUN DANG PHARMACEUTICAL CORP., priority 2020, published 2023).
Read-outs that look alike come from different tables or passages of the source.

What was measured:
[1] = target: T1, human recombinant HDAC1 (Homo sapiens, UniProt Q13547); test: HDAC1 enzyme activity inhibition (HDAC Fluorimetric Drug Discovery Kit); format: biochemical
T1 construct: purchased Enzo Life Science, Inc. BML-SE456
Outline: (§1)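 Five-fold compound dilutions incubated with […] recombinant enzyme and 10 μM fluorogenic Fluor de Lys substrate, 60 min at 30° C. Fluor de Lys Developer II then added for 30 min to generate the fluorescent read-out.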

[2] = target: T2, human recombinant HDAC6 (Homo sapiens, UniProt Q9UBN7); test: HDAC6 enzyme activity inhibition (HDAC Fluorimetric Drug Discovery Kit); format: biochemical
T2 construct: purchased Calbiochem Inc. 382180
T2 sequence (Q9UBN7 1-1215): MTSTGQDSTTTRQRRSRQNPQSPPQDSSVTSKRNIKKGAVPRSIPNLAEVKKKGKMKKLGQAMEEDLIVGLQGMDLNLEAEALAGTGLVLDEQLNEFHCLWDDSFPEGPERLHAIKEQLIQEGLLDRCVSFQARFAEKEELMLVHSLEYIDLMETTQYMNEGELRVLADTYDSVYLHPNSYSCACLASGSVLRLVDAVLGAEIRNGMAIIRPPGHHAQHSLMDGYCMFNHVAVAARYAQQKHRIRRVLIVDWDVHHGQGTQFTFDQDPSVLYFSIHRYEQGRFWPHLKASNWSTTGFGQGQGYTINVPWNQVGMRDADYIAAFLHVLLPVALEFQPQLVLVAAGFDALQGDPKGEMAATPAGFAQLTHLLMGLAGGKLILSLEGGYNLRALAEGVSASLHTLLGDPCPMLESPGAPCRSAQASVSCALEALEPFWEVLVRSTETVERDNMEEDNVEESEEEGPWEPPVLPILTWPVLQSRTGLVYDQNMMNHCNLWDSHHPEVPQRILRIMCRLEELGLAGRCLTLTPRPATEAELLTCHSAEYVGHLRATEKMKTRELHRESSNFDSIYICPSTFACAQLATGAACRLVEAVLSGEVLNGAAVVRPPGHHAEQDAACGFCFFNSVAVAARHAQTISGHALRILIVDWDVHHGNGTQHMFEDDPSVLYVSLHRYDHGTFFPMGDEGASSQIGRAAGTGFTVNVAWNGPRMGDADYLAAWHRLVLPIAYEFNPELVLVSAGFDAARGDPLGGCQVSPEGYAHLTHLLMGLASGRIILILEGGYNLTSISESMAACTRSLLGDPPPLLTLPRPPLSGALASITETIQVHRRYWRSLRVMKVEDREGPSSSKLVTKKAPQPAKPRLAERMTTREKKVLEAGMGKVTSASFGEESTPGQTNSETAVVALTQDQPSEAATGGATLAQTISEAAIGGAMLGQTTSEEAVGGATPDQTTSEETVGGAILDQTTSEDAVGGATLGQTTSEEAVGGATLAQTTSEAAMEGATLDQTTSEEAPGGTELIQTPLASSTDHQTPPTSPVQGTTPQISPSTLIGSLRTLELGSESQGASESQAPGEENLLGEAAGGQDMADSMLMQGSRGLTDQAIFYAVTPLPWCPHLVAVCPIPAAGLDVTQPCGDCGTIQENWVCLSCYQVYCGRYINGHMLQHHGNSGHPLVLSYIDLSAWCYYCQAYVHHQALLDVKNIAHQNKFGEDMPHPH
Outline: as §1

[3] = human recombinant HDAC1, Fluor de Lys substrate, 30° C. 60 minutes, read-out: HDAC1
[4] = human recombinant HDAC6, same protocol as HDAC1
[5] = human recombinant HDAC1, IC50 calculated with GraphPad Prism, read-out: HDAC1
[6] = human recombinant HDAC6, IC50 calculated with GraphPad Prism

T1 sequence (Q13547 whole entry): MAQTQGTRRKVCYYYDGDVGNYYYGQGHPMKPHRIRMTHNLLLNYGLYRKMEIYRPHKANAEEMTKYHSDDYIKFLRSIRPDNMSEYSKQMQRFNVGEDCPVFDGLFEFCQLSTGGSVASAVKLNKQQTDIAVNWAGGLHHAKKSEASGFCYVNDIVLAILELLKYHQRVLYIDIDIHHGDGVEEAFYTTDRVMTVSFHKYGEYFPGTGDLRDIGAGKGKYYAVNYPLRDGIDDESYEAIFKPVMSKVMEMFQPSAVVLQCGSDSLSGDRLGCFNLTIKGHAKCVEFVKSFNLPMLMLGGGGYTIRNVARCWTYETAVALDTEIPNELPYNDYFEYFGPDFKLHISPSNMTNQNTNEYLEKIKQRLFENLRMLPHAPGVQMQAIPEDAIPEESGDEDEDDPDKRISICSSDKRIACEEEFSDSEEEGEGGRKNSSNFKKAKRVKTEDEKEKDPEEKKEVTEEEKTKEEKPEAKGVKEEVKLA

Row | IC50 [1, 3] [nM] | HDAC6 selectivity (fold) ([2]; HDAC6 over HDAC1) | IC50 [2, 4] [nM] | IC50 [1, 5] [nM] | HDAC6 selectivity (fold) ([2]; HDAC1 IC50 / HDAC6 IC50) | IC50 [2, 6] [nM] | IC50 [1] [nM] | SMILES
1 | > 50000 | 986 | 50.7 |  |  |  |  | Fc1cc(-c2nnc(C(F)F)o2)ccc1Cn1cc(-c2ccc3c(c2)CN(C2CCC2)C3)nn1 [Compound 4518, 2-(4-((4-(2-cyclobutylisoindolin-5-yl)-1H-1,2,3-triazol-1-yl)methyl)-3-fluorophenyl)-5-(difluoromethyl)-1,3,4-oxadiazole]
2 |  |  |  | > 50000 | 1094 | 45.7 |  | Fc1cc(-c2nnc(C(F)F)o2)ccc1Cn1cc(-c2cccc(N3CCN(C4CCC4)CC3)c2)nn1 [Compound 4376, 2-(4-((4-(3-(4-cyclobutylpiperazin-1-yl)phenyl)-1H-1,2,3-triazol-1-yl)methyl)-3-fluorophenyl)-5-(difluoromethyl)-1,3,4-oxadiazole]
3 |  |  |  | > 50000 | 116 | 429 |  | CC(C)C(=O)N1CC(c2cn(Cc3ccc(-c4nnc(C(F)F)o4)cn3)nn2)C1 [Compound 3958, 1-(3-(1-((5-(5-(difluoromethyl)-1,3,4-oxadiazol-2-yl)pyridin-2-yl)methyl)-1H-1,2,3-triazol-4-yl)azetidin-1-yl)-2-methylpropan-1-one]
4 |  |  |  | > 50000 | 7575 | 6.6 |  | FC(F)c1nnc(-c2ccc(Cn3cc(-c4ccc5cn[nH]c5c4)nn3)nc2)o1 [Compound 4340, 2-(6-((4-(1H-indazol-6-yl)-1H-1,2,3-triazol-1-yl)methyl)pyridin-3-yl)-5-(difluoromethyl)-1,3,4-oxadiazole]
5 | > 50000 | 813 | 61.5 |  |  |  |  | CC(C)N1Cc2cccc(-c3cn(Cc4ccc(-c5nnc(C(F)F)o5)cn4)nn3)c2C1 [Compound 4597, 2-(difluoromethyl)-5-(6-((4-(2-isopropylisoindolin-4-yl)-1H-1,2,3-triazol-1-yl)methyl)pyridin-3-yl)-1,3,4-oxadiazole]
6 |  |  |  | > 50000 | 1577 | 31.7 |  | FC(F)c1nnc(-c2ccc(Cn3cc(-c4ccc(-n5cncn5)cc4)nn3)nc2)o1 [Compound 4285, 2-(6-((4-(4-(1H-1,2,4-triazol-1-yl)phenyl)-1H-1,2,3-triazol-1-yl)methyl)pyridin-3-yl)-5-(difluoromethyl)-1,3,4-oxadiazole]
7 |  |  |  | > 50000 | 2604 | 19.2 |  | Fc1ccc(N2CCNCC2)cc1-c1cn(Cc2ccc(-c3nnc(C(F)F)o3)cc2)nn1 [Compound 4450, 2-(difluoromethyl)-5-(4-((4-(2-fluoro-5-(piperazin-1-yl)phenyl)-1H-1,2,3-triazol-1-yl)methyl)phenyl)-1,3,4-oxadiazole]
8 | > 50000 | 308 | 162 |  |  |  |  | Fc1cc(-c2nnc(C(F)F)o2)ccc1Cn1cc(-c2ccccc2CNC2COC2)nn1 [Compound 4590, N-(2-(1-(4-(5-(difluoromethyl)-1,3,4-oxadiazol-2-yl)-2-fluorobenzyl)-1H-1,2,3-triazol-4-yl)benzyl)oxetan-3-amine]
9 | > 50000 | 744 | 67.2 |  |  |  |  | Fc1cc(-c2nnc(C(F)F)o2)ccc1Cn1cc(-c2cccc(N3CCN(CC4CC(F)(F)C4)CC3)c2F)nn1 [Compound 4603, 2-(4-((4-(3-(4-((3,3-difluorocyclobutyl)methyl)piperazin-1-yl)-2-fluorophenyl)-1H-1,2,3-triazol-1-yl)methyl)-3-fluorophenyl)-5-(difluoromethyl)-1,3,4-oxadiazole]
10 |  |  |  | > 50000 | 444 | 113 |  | FC(F)c1nnc(-c2ccc(Cn3cc(-c4ccccc4)cn3)nc2)o1 [Compound 4133, 2-(difluoromethyl)-5-(6-((4-phenyl-1H-pyrazol-1-yl)methyl)pyridin-3-yl)-1,3,4-oxadiazole]
11 |  |  |  | > 50000 | 1694 | 29.5 |  | FC(F)c1nnc(-c2ccc(Cn3cc(-c4cccc(CN5CCCC5)c4)nn3)nc2)o1 [Compound 3966, 2-(difluoromethyl)-5-(6-((4-(3-(pyrrolidin-1-ylmethyl)phenyl)-1H-1,2,3-triazol-1-yl)methyl)pyridin-3-yl)-1,3,4-oxadiazole]
12 | > 50000 | 1333 | 37.5 |  |  |  |  | CN1CC(NCc2ccc(-c3cn(Cc4ccc(-c5nnc(C(F)F)o5)cn4)nn3)cc2)C1 [Compound 4567, N-(4-(1-((5-(5-(difluoromethyl)-1,3,4-oxadiazol-2-yl)pyridin-2-yl)methyl)-1H-1,2,3-triazol-4-yl)benzyl)-1-methylazetidin-3-amine]
13 |  |  |  | > 50000 | 326 | 153 |  | CC(C)(C)C(=O)N1CCC(c2cn(Cc3ccc(-c4nnc(C(F)F)o4)cn3)nn2)CC1 [Compound 3893, 1-(4-(1-((5-(5-(difluoromethyl)-1,3,4-oxadiazol-2-yl)pyridin-2-yl)methyl)-1H-1,2,3-triazol-4-yl)piperidin-1-yl)-2,2-dimethylpropan-1-one]
14 |  |  |  | > 50000 | 896 | 55.8 |  | Fc1cccnc1-c1cn(Cc2ccc(-c3nnc(C(F)F)o3)cn2)nn1 [Compound 4178]
15 | > 50000 | 897 | 55.7 |  |  |  |  | Fc1cc(-c2nnc(C(F)F)o2)ccc1Cn1cc(-c2ccc(CN3CC[C@@H](F)C3)nc2)nn1 [Compound 17774, (R)-2-(difluoromethyl)-5-(3-fluoro-4-((4-(6-((3-fluoropyrrolidin-1-yl)methyl)pyridin-3-yl)-1H-1,2,3-triazol-1-yl)methyl)phenyl)-1,3,4-oxadiazole]
16 |  |  |  | > 50000 | 531 | 94 |  | FC(F)c1nnc(-c2ccc(Cn3cc(-c4cccc(N5C[C@@H]6C[C@H]5CN6C5CCC5)c4)nn3)cc2)o1 [Compound 4322]
17 |  |  |  | > 50000 | 781 | 64 |  | FC1CN(Cc2cccc(-c3cn(Cc4ccc(-c5nnc(C(F)F)o5)cc4)nn3)c2)C1 [Compound 4410, 2-(difluoromethyl)-5-(4-((4-(3-((3-fluoroazetidin-1-yl)methyl)phenyl)-1H-1,2,3-triazol-1-yl)methyl)phenyl)-1,3,4-oxadiazole]
18 |  | 502 | 99.5 |  |  |  | > 50000 | Fc1cc(-c2nnc(C(F)F)o2)ccc1Cn1cc(-c2ccc(N3CCN(C4CCOCC4)CC3)c(F)c2)nn1 [Compound 18327, 2-(difluoromethyl)-5-(3-fluoro-4-((4-(3-fluoro-4-(4-(tetrahydro-2H-pyran-4-yl)piperazin-1-yl)phenyl)-1H-1,2,3-triazol-1-yl)methyl)phenyl)-1,3,4-oxadiazole]
19 |  |  |  | > 50000 | 1510 | 33.1 |  | CC(=O)N1CCC(Nc2cccc(-c3cn(Cc4ccc(-c5nnc(C(F)F)o5)cc4F)nn3)c2F)CC1 [Compound 4433, 1-(4-((3-(1-(4-(5-(difluoromethyl)-1,3,4-oxadiazol-2-yl)-2-fluorobenzyl)-1H-1,2,3-triazol-4-yl)-2-fluorophenyl)amino)piperidin-1-yl)ethan-1-one]
20 | > 50000 | 801 | 62.4 |  |  |  |  | CN1CC(NCc2ccc(-c3cn(Cc4ccc(-c5nnc(C(F)F)o5)cc4)nn3)cc2)C1 [Compound 4557, N-(4-(1-(4-(5-(difluoromethyl)-1,3,4-oxadiazol-2-yl)benzyl)-1H-1,2,3-triazol-4-yl)benzyl)-1-methylazetidin-3-amine]
21 |  |  |  | > 50000 | 1259 | 39.7 |  | CCN1CCN(Cc2cccc(-c3cn(Cc4ccc(-c5nnc(C(F)F)o5)cc4F)nn3)c2)CC1 [Compound 4407, 2-(difluoromethyl)-5-(4-((4-(3-((4-ethylpiperazin-1-yl)methyl)phenyl)-1H-1,2,3-triazol-1-yl)methyl)-3-fluorophenyl)-1,3,4-oxadiazole]
